# ChEMBL document CHEMBL1130679, “Novel phosphate mimetics for the design of non-peptidyl inhibitors of protein tyrosine phosphatases” (Bioorg Med Chem Lett, 1998)
# Target: T1, Tyrosine-protein phosphatase non-receptor type 1 (Homo sapiens, UniProt P18031)
# T1 sequence (P18031 whole entry): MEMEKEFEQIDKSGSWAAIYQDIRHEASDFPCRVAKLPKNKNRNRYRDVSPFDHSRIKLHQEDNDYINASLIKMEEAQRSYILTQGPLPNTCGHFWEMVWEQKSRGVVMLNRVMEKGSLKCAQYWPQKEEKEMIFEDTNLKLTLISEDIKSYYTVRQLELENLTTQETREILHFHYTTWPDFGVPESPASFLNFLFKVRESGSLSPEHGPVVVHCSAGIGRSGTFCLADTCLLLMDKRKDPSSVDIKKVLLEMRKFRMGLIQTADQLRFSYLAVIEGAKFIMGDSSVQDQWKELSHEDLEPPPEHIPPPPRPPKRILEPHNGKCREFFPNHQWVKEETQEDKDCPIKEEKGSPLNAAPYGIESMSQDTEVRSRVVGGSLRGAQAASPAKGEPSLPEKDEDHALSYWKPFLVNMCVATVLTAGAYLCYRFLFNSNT
# Test: Inhibitory activity against PTP1B as a model Protein tyrosine […] (PTP) using fluorescein diphosphate as substrate at Km concentration (20 uM) at th
row,IC50,SMILES
1,15 µM,O=P(O)(O)OC(F)(F)c1cccc(-c2ccccc2)c1

# Target: T2, Tyrosine-protein phosphatase non-receptor type 1 (Homo sapiens) (UniProt P18031)
# T2 sequence (whole entry): T1 sequence (P18031 whole entry)
# Test: Inhibitory activity against protein tyrosine phosphatase 1B (PTP1B) at 500 uM conc. using fluorescein diphosphate as substrate at Km concentration (20 uM)
row,inhibition,SMILES
1,10%,O=S(=O)(O)Cc1cccc(-c2ccccc2)c1
2,15%,c1ccc(-c2cccc(Cc3nnn[nH]3)c2)cc1
3,17%,O=P(O)(O)Cc1cccc(-c2ccccc2)c1

# The remaining lines, values behind:
row,SMILES,inhibition
1,O=S(=O)(O)Cc1ccc2ccccc2c1,5%
2,O=C(O)Cc1cccc(-c2ccccc2)c1,10%
3,c1ccc2cc(Cc3nnn[nH]3)ccc2c1,12%
4,O=P(O)(O)Cc1ccc2ccccc2c1,9%
5,O=C(O)Cc1ccc2ccccc2c1,4%

# Target: T1, Tyrosine-protein phosphatase non-receptor type 1
# Test: Inhibitory activity against protein tyrosine phosphatase 1B (PTP1B) using fluorescein diphosphate as substrate at Km concentration (20 uM)
row,IC50,SMILES
1,230 µM,FC(F)(c1ccc2ccccc2c1)c1nnn[nH]1
2,435 µM,O=C(O)C(F)(F)c1cccc(-c2ccccc2)c1
3,250 µM,O=C(O)C(F)(Oc1cccc(-c2ccccc2)c1)C(=O)O
4,195 µM,FC(F)(c1cccc(-c2ccccc2)c1)c1nnn[nH]1

# More lines, now with the values behind:
row,SMILES,IC50
1,O=S(=O)(O)C(F)(F)c1ccc2ccccc2c1,175 µM
2,O=P(O)(O)OC(F)(F)c1ccc2ccccc2c1,35 µM
3,O=S(=O)(O)C(F)(F)c1cccc(-c2ccccc2)c1,115 µM
4,O=C(O)C(F)(F)c1ccc2ccccc2c1,640 µM
5,O=C(O)C(F)(Oc1ccc2ccccc2c1)C(=O)O,320 µM

# Target: T1, Tyrosine-protein phosphatase non-receptor type 1
# Test: Binding affinity against Protein tyrosine phosphatase-1B (PTP1B)
row,SMILES,Ki
1,FC(F)(c1cccc(-c2ccccc2)c1)c1nnn[nH]1,98 µM
2,O=S(=O)(O)C(F)(F)c1cccc(-c2ccccc2)c1,49 µM
